The values that follow come from US20240043386A1, “Modulators of the Cystic Fibrosis Transmembrane Conductance Regulator Protein and Methods of Use” (AbbVie Global Enterprises Ltd., priority 2021, published 2024).

Read-outs that look alike come from different tables or passages of the source.

One test addresses T1, F508del/F508del CFTR (Homo sapiens, UniProt P13569, DEL508-508).
T1 construct: cells isolated from CF patients with the homozygous mutation; endogenous in cells; host or cells: primary human bronchial epithelial (hBE) cells from CF patients homozygous for F508del
As to the kind of experiment: Trans-Epithelial Current Clamp (TECC) assay using primary human bronchial epithelial cells. The test is classed as cell-based. The following applies: for Emax (% Dual): maximum percent activity relative to positive control (co-corrector 0.15 μM + potentiator 0.45 μM = 100%), primary hBE cells F508del/F508del; for EC50: primary hBE cells homozygous F508del/F508del, test C2 corrector with co-corrector and potentiator, 18-24 hours at 37° C., equivalent CFTR current (IEQ)/AUC. The essentials: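 Readout is the equivalent CFTR current (IEQ, from offset-corrected VT and RT) plus AUC from forskolin peak to bumetanide addition, recorded on TECC-24 at 36.5° C. Beforehand, homozygous F508del hBE cultures received correctors with co-corrector and potentiator basolaterally for 18-24 h at 37° C.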

The next test addresses T2, F508delCFTR (Homo sapiens, UniProt P13569, DEL508-508).
T2 construct: expressed in transfected cells; host or cells: CFBE41o- human lung-derived epithelial cell line, doxycycline-inducible expression
As to the kind of experiment: Cell Surface Expression-Horse Radish Peroxidase (CSE-HRP) assay in CFBE41o-F508delCFTR-HRP cells. It is filed as cell-based. The note with it: for EC50: CFBE41o-F508delCFTR-HRP cells, 18-24 hours at 33° C., luminescence; for Maximum % activity (without co-corrector): normalized to on-plate positive control corrector (2 μM). An outline of the steps: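 Test compounds were tested alone or alongside a co-corrector (2 μM), 8-point 3-fold series from 20 or 30 μM, for 18–24 h at 33 °C on doxycycline-induced CFBE41o-F508delCFTR-HRP cells. After washing, luminol luminescence reported cell-surface HRP-tagged CFTR, normalized to the positive control (% activity). EC50 was fitted with a variable Hill slope sigmoid from triplicate plates; Z′ >0.5 required.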

The mark [1] stands for this setting: with co-corrector (2 μM), read-out: EC50 (with co-corrector).
Where [2] appears, read: without co-corrector, read-out: EC50 (without co-corrector).

T2 sequence (P13569 with tags, fused parts or gaps DEL508-508): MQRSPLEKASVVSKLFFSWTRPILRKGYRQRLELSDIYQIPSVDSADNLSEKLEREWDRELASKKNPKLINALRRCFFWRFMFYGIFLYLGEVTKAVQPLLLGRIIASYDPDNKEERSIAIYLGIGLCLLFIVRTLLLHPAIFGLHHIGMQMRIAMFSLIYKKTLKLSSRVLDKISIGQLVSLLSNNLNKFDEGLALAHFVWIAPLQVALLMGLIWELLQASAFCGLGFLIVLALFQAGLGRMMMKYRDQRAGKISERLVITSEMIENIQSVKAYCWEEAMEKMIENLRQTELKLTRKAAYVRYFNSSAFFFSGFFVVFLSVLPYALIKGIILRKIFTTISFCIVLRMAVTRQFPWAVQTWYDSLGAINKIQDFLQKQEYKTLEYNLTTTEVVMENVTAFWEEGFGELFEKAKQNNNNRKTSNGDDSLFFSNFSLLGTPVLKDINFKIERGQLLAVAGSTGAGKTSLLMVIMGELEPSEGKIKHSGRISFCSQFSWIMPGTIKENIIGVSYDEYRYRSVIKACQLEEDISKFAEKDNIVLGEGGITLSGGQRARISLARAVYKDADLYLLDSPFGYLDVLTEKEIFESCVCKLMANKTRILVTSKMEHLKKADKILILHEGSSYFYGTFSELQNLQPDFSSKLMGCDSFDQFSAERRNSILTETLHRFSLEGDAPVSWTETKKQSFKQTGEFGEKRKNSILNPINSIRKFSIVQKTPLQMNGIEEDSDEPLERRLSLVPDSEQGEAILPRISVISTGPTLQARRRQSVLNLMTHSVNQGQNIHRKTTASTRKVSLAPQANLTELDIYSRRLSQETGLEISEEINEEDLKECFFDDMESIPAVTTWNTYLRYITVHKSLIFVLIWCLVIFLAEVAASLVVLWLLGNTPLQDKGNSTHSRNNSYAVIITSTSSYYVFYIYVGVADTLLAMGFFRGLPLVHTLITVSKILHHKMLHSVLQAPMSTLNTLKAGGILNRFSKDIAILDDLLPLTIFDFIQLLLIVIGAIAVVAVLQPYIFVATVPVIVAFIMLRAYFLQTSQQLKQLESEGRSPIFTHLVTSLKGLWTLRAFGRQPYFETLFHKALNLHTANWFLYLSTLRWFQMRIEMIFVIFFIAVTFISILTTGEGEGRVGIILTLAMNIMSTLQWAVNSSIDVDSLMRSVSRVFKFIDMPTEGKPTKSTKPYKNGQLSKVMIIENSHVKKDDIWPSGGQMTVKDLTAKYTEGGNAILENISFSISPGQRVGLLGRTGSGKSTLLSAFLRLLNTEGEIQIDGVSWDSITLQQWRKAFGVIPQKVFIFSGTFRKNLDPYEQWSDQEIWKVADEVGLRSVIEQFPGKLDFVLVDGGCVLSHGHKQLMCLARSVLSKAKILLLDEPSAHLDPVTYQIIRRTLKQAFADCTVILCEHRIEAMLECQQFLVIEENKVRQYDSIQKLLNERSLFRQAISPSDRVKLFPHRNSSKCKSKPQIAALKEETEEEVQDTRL
T1 sequence (P13569 with tags, fused parts or gaps DEL508-508): as above

In general, EC50 refers to the concentration giving half of the maximal effect. As to `COc1ccc(C)cc1[C@]1(C(=O)NS(=O)(=O)c2cccc3nc(C)ccc23)C[C@@H]1c1cc(F)cnc1OC` [Example 84, (1S,2R)-2-(5-fluoro-2-methoxypyridin-3-yl)-1-(2-methoxy-5-methylphenyl)-N-(2-methylquinoline-5-sulfonyl)cyclopropane-1-carboxamide], the “Emax (% Dual)” value on F508del/F508del CFTR came out at 215 % Dual. For the same compound, the 50% effective concentration (EC50) on F508del/F508del CFTR came out at 17.5 nM; at F508delCFTR (setting [1]), 945 nM; at F508delCFTR (setting [2]), 1360 nM.

Regarding `COCc1cccc([C@H]2C[C@@]2(C(=O)NS(=O)(=O)c2cccc3nc(C)ccc23)c2cc(C)ccc2OC)n1` [Example 90, (1S,2S)-1-(2-methoxy-5-methylphenyl)-2-[6-(methoxymethyl)pyridin-2-yl]-N-(2-methylquinoline-5-sulfonyl)cyclopropane-1-carboxamide], the “Emax (% Dual)” value on F508del/F508del CFTR turned out to be 348 % Dual. Besides, the concentration giving a half-maximal response (EC50) was determined as 40.4 nM on F508del/F508del CFTR, 900 nM on F508delCFTR (setting [1]) and 1720 nM on F508delCFTR (setting [2]). For the same compound, the “Maximum % activity (without co-corrector)” value on F508delCFTR (without co-corrector) is 812%.

In the case of `COc1ccc(C)cc1[C@]1(C(=O)NS(=O)(=O)c2cccc3nc(C)ccc23)C[C@@H]1c1cccc(C)n1` [Example 96, (1S,2S)-1-(2-methoxy-5-methylphenyl)-2-(6-methylpyridin-2-yl)-N-(2-methylquinoline-5-sulfonyl)cyclopropane-1-carboxamide], the “Emax (% Dual)” value on F508del/F508del CFTR was determined as 256 % Dual. Moreover, the values for the EC50 on F508del/F508del CFTR, on F508delCFTR (setting [1]) and on F508delCFTR (setting [2]) were 7.8 nM, 990 nM and 1980 nM, respectively.

Consider `COc1ccc(C)cc1[C@]1(C(=O)NS(=O)(=O)c2cccc3nc(C)ccc23)C[C@@H]1c1cccc(OC(C)C)n1` [Example 97, (1S,2S)-1-(2-methoxy-5-methylphenyl)-N-(2-methylquinoline-5-sulfonyl)-2-{6-[(propan-2-yl)oxy]pyridin-2-yl}cyclopropane-1-carboxamide], for which the “Emax (% Dual)” value on F508del/F508del CFTR came to 198 % Dual. Also, the results for the EC50 on F508del/F508del CFTR, at F508delCFTR (setting [1]) and at F508delCFTR (setting [2]) were 0.9 nM, 359 nM and 988 nM, respectively.

As for `COc1ccc(C)cc1[C@]1(C(=O)NS(=O)(=O)c2cccc3nc(C)ccc23)C[C@@H]1c1cnc(OC)c(Cl)c1` [Example 102, (1S,2R)-2-(5-chloro-6-methoxypyridin-3-yl)-1-(2-methoxy-5-methylphenyl)-N-(2-methylquinoline-5-sulfonyl)cyclopropane-1-carboxamide], the “Emax (% Dual)” value at F508del/F508del CFTR was determined as 397 % Dual. Moreover, the values for the concentration for a half-maximal effect (EC50) on F508del/F508del CFTR, at F508delCFTR (setting [1]) and at F508delCFTR (setting [2]) were 32.7 nM, 825 nM and 2300 nM, respectively.

Take `COc1ccc(C)cc1[C@]1(C(=O)NS(=O)(=O)c2cccc3nc(C)ccc23)C[C@@H]1c1cnc(OC)c(C)c1` [Example 103, (1S,2R)-1-(2-methoxy-5-methylphenyl)-2-(6-methoxy-5-methylpyridin-3-yl)-N-(2-methylquinoline-5-sulfonyl)cyclopropane-1-carboxamide]: the “Emax (% Dual)” value at F508del/F508del CFTR came to 266 % Dual. In addition, the values for the concentration for a half-maximal effect (EC50) at F508del/F508del CFTR, on F508delCFTR (setting [1]) and at F508delCFTR (setting [2]) were 1.8 nM, 587 nM and 714 nM, respectively. For the same compound, at F508delCFTR (without co-corrector), the “Maximum % activity (without co-corrector)” value was 800%.
